“And” between values parts separate entries of the source, which are not always exact repeats. Equal values may be shown once.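 Growth conditions: 96-well plates. Treatment: test compound, 48 hours, 5 concentrations. Analysis: linear interpolation between bracketing concentrations; unreached endpoints set to highest concentration. Here, GI50 denotes the concentration required for 50% inhibition of growth. TGI: total growth inhibition.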
Legend:
Assay in all cases: growth of human tumour cells (NCI), 48 h
A498 renal = tested on: A498 renal
SF-295 CNS = tested on: SF-295 CNS
T-47D breast = tested on: T-47D breast
TK-10 renal = tested on: TK-10 renal
SK-MEL-28 melanoma = tested on: SK-MEL-28 melanoma
SK-MEL-2 melanoma = tested on: SK-MEL-2 melanoma
RPMI-8226 leukemia = tested on: RPMI-8226 leukemia
NCI-H460 lung = tested on: NCI-H460 lung
IGROV1 ovarian = tested on: IGROV1 ovarian
DU-145 prostate = tested on: DU-145 prostate

COc1cccc(-c2nc3sccn3c2-c2ccnc(NCCCNS(=O)(=O)c3ccccc3)c2)c1
GI50 (A498 renal): 2.92 µM | TGI (A498 renal): > 100 µM | GI50 (SF-295 CNS): 3.18 µM | TGI (SF-295 CNS): 20.8 µM | GI50 (T-47D breast): 1.73 µM | TGI (T-47D breast): 6.24 µM | GI50 (TK-10 renal): 4.27 µM | TGI (TK-10 renal): > 100 µM | GI50 (SK-MEL-28 melanoma): 3.59 µM | TGI (SK-MEL-28 melanoma): > 100 µM | GI50 (SK-MEL-2 melanoma): 2.87 µM | TGI (SK-MEL-2 melanoma): 8.85 µM | GI50 (RPMI-8226 leukemia): 1.61 µM | TGI (RPMI-8226 leukemia): 4.26 µM | GI50 (NCI-H460 lung): 3.35 µM | TGI (NCI-H460 lung): > 100 µM | GI50 (IGROV1 ovarian): 3.14 µM | TGI (IGROV1 ovarian): > 100 µM | GI50 (DU-145 prostate): 3.14 µM | TGI (DU-145 prostate): > 100 µM

COc1ccc2c(c1OC)O/C(=C\c1ncc([N+](=O)[O-])n1C)C2=O
GI50 (A498 renal): 3.32 µM | TGI (A498 renal): 10.4 µM | GI50 (SF-295 CNS): 3.13 µM | TGI (SF-295 CNS): 21.7 µM | GI50 (T-47D breast): > 70.9 µM | TGI (T-47D breast): > 100 µM | GI50 (TK-10 renal): 3.26 µM | TGI (TK-10 renal): > 24.1 µM | GI50 (SK-MEL-28 melanoma): 0.623 µM | TGI (SK-MEL-28 melanoma): 3.43 µM | GI50 (SK-MEL-2 melanoma): 0.681 µM | TGI (SK-MEL-2 melanoma): 1.72 µM | GI50 (RPMI-8226 leukemia): 3.07 µM | TGI (RPMI-8226 leukemia): 16.4 µM | GI50 (NCI-H460 lung): 0.925 µM | TGI (NCI-H460 lung): 4.83 µM | GI50 (IGROV1 ovarian): 1.36 µM | TGI (IGROV1 ovarian): 9.46 µM | GI50 (DU-145 prostate): 1.42 µM | TGI (DU-145 prostate): 6.27 µM

CN1CC[C@H](c2c(O)cc(O)c3c(=O)cc(-c4ccccc4Cl)oc23)[C@H](O)C1
GI50 (A498 renal): 0.0215 µM | TGI (A498 renal): 0.062 µM | GI50 (SF-295 CNS): 0.21 µM | TGI (SF-295 CNS): 0.625 µM | GI50 (T-47D breast): 0.0737 µM | TGI (T-47D breast): > 2.84 µM | GI50 (TK-10 renal): 0.0999 µM | TGI (TK-10 renal): > 10 µM | TGI (SK-MEL-28 melanoma): 1.3 µM | GI50 (SK-MEL-2 melanoma): 0.0668 µM | TGI (SK-MEL-2 melanoma): 0.26 µM | GI50 (RPMI-8226 leukemia): 0.076 µM | TGI (RPMI-8226 leukemia): > 2.32 µM | TGI (NCI-H460 lung): > 10 µM | GI50 (IGROV1 ovarian): 0.0414 µM | TGI (IGROV1 ovarian): > 10 µM | GI50 (DU-145 prostate): 0.075 µM | TGI (DU-145 prostate): > 10 µM

OCCN(CO)CO
TGI (A498 renal): > 100 µM | TGI (SF-295 CNS): > 100 µM | TGI (T-47D breast): > 100 µM | TGI (TK-10 renal): > 100 µM | TGI (SK-MEL-28 melanoma): > 100 µM | TGI (SK-MEL-2 melanoma): > 100 µM | TGI (RPMI-8226 leukemia): > 100 µM | TGI (NCI-H460 lung): > 100 µM | TGI (IGROV1 ovarian): > 100 µM | TGI (DU-145 prostate): > 100 µM

CSC1=Nc2c(c(C)c(-c3ccccc3)n2COC(CO)CO)C2=NC(=O)CC(C)N12 (configuration not stated)
GI50 (A498 renal): > 100 µM | TGI (A498 renal): > 100 µM | GI50 (SF-295 CNS): > 100 µM | TGI (SF-295 CNS): > 100 µM | GI50 (T-47D breast): > 100 µM | TGI (T-47D breast): > 100 µM | GI50 (TK-10 renal): > 100 µM | TGI (TK-10 renal): > 100 µM | GI50 (SK-MEL-28 melanoma): > 100 µM | TGI (SK-MEL-28 melanoma): > 100 µM | GI50 (SK-MEL-2 melanoma): > 100 µM | TGI (SK-MEL-2 melanoma): > 100 µM | GI50 (RPMI-8226 leukemia): > 100 µM | TGI (RPMI-8226 leukemia): > 100 µM | GI50 (NCI-H460 lung): > 100 µM | TGI (NCI-H460 lung): > 100 µM | GI50 (IGROV1 ovarian): > 100 µM | TGI (IGROV1 ovarian): > 100 µM | GI50 (DU-145 prostate): > 100 µM | TGI (DU-145 prostate): > 100 µM

COc1ccccc1NC(=O)C1=C(C)NC(C)=C(C(=O)Nc2ccccc2OC)C1c1ccco1
TGI (A498 renal): 38.4 µM | TGI (SF-295 CNS): > 44.2 µM | TGI (T-47D breast): > 100 µM | TGI (TK-10 renal): > 79.7 µM | TGI (SK-MEL-28 melanoma): > 92 µM | TGI (SK-MEL-2 melanoma): 31.4 µM | TGI (RPMI-8226 leukemia): 76.1 µM | TGI (NCI-H460 lung): > 43.9 µM | TGI (IGROV1 ovarian): > 100 µM | TGI (DU-145 prostate): > 100 µM

CCn1c(-c2nonc2N)nc2cnc(Oc3cccc(NC(=O)c4ccc(N(C)C)cc4)c3)cc21
GI50 (A498 renal): 4.48 µM | TGI (A498 renal): > 25 µM | GI50 (SF-295 CNS): 12 µM | TGI (SF-295 CNS): > 25 µM | GI50 (T-47D breast): 9.62 µM | TGI (T-47D breast): > 25 µM | GI50 (TK-10 renal): 0.549 µM | TGI (TK-10 renal): > 21 µM | GI50 (SK-MEL-28 melanoma): > 25 µM | TGI (SK-MEL-28 melanoma): > 25 µM | GI50 (SK-MEL-2 melanoma): > 25 µM | TGI (SK-MEL-2 melanoma): > 25 µM | GI50 (RPMI-8226 leukemia): > 25 µM | TGI (RPMI-8226 leukemia): > 25 µM | GI50 (NCI-H460 lung): > 25 µM | TGI (NCI-H460 lung): > 25 µM | GI50 (IGROV1 ovarian): 22 µM | TGI (IGROV1 ovarian): > 25 µM | GI50 (DU-145 prostate): > 21.7 µM | TGI (DU-145 prostate): > 25 µM

COc1cc(NC2CCCCC2O)c2nc(-c3ccc(Cl)cc3)ccc2c1 (configuration not stated)
GI50 (A498 renal): 6.66 µM | TGI (A498 renal): 34.8 µM | GI50 (SF-295 CNS): 2.8 µM | TGI (SF-295 CNS): 12.1 µM | GI50 (T-47D breast): 4.9 µM | TGI (T-47D breast): > 100 µM | GI50 (TK-10 renal): 14.6 µM | TGI (TK-10 renal): > 100 µM | GI50 (SK-MEL-28 melanoma): 14.4 µM | TGI (SK-MEL-28 melanoma): > 100 µM | GI50 (SK-MEL-2 melanoma): 12.5 µM | TGI (SK-MEL-2 melanoma): 59.3 µM | GI50 (RPMI-8226 leukemia): 3.66 µM | TGI (RPMI-8226 leukemia): 25 µM | GI50 (NCI-H460 lung): 3.35 µM | TGI (NCI-H460 lung): 12.3 µM | GI50 (IGROV1 ovarian): 24.6 µM | TGI (IGROV1 ovarian): > 100 µM | GI50 (DU-145 prostate): 12.7 µM | TGI (DU-145 prostate): 58 µM

COc1ccc(-c2csc(Nc3cccc(-c4csc(C)n4)c3)n2)cc1
GI50 (A498 renal): 12.6 µM | TGI (A498 renal): 49.2 µM | GI50 (SF-295 CNS): 0.68 µM | TGI (SF-295 CNS): > 11.5 µM | GI50 (T-47D breast): 11.5 µM | TGI (T-47D breast): > 50 µM | GI50 (TK-10 renal): 5.04 µM | TGI (TK-10 renal): > 50 µM | GI50 (SK-MEL-28 melanoma): 1.98 µM | TGI (SK-MEL-28 melanoma): > 12.1 µM | GI50 (SK-MEL-2 melanoma): 4.7 µM | TGI (SK-MEL-2 melanoma): > 27 µM | GI50 (RPMI-8226 leukemia): 2.52 µM | TGI (RPMI-8226 leukemia): > 50 µM | GI50 (NCI-H460 lung): 0.354 µM | TGI (NCI-H460 lung): > 19.3 µM | GI50 (IGROV1 ovarian): 0.697 µM | TGI (IGROV1 ovarian): > 41.6 µM | GI50 (DU-145 prostate): 2.14 µM | TGI (DU-145 prostate): > 50 µM

COc1ccc(C2NC(=S)NC3=C2CCOc2c3ccc3ccccc23)cc1 (configuration not stated)
GI50 (A498 renal): 16.6 µM | TGI (A498 renal): > 100 µM | GI50 (SF-295 CNS): 19.1 µM | TGI (SF-295 CNS): > 100 µM | GI50 (T-47D breast): 8.5 µM | TGI (T-47D breast): > 100 µM | GI50 (TK-10 renal): > 100 µM | TGI (TK-10 renal): > 100 µM | GI50 (SK-MEL-28 melanoma): > 100 µM | TGI (SK-MEL-28 melanoma): > 100 µM | GI50 (SK-MEL-2 melanoma): > 100 µM | TGI (SK-MEL-2 melanoma): > 100 µM | GI50 (RPMI-8226 leukemia): 12.8 µM | TGI (RPMI-8226 leukemia): > 100 µM | GI50 (NCI-H460 lung): 7.88 µM | TGI (NCI-H460 lung): > 100 µM | GI50 (IGROV1 ovarian): > 100 µM | TGI (IGROV1 ovarian): > 100 µM | GI50 (DU-145 prostate): > 100 µM | TGI (DU-145 prostate): > 100 µM

COc1ccc(-c2c(N)noc2-c2cc(OC)c3c(c2)OCCO3)cc1
GI50 (A498 renal): < 0.01 µM | TGI (A498 renal): 0.303 µM | GI50 (SF-295 CNS): < 0.01 µM | TGI (SF-295 CNS): 22.3 µM | GI50 (T-47D breast): 0.64 µM | TGI (T-47D breast): 41.2 µM | GI50 (TK-10 renal): 0.562 µM | TGI (TK-10 renal): > 56.6 µM | GI50 (SK-MEL-28 melanoma): 0.026 µM | TGI (SK-MEL-28 melanoma): > 100 µM | GI50 (SK-MEL-2 melanoma): < 0.01 µM | TGI (SK-MEL-2 melanoma): 67.5 µM | GI50 (RPMI-8226 leukemia): 0.0333 µM | TGI (RPMI-8226 leukemia): 17.9 µM | GI50 (NCI-H460 lung): < 0.01 µM | TGI (NCI-H460 lung): 11.9 µM | GI50 (IGROV1 ovarian): 0.0177 µM | TGI (IGROV1 ovarian): > 73.3 µM | GI50 (DU-145 prostate): 0.0202 µM | TGI (DU-145 prostate): 0.193 µM

CC(=O)OCC1OC(n2c3c(cc(C#N)c2=S)CCCC3)C(OC(C)=O)C(OC(C)=O)C1OC(C)=O (configuration not stated)
TGI (A498 renal): > 100 µM | GI50 (SF-295 CNS): > 100 µM and 19.7 µM | TGI (SF-295 CNS): > 100 µM and 48.4 µM | GI50 (T-47D breast): > 100 µM | TGI (T-47D breast): > 100 µM | TGI (TK-10 renal): > 100 µM | TGI (SK-MEL-28 melanoma): > 100 µM | GI50 (SK-MEL-2 melanoma): > 100 µM and 27 µM | TGI (SK-MEL-2 melanoma): > 100 µM | GI50 (RPMI-8226 leukemia): 32.6 µM and > 100 µM | TGI (RPMI-8226 leukemia): > 100 µM | TGI (NCI-H460 lung): > 100 µM | TGI (IGROV1 ovarian): > 100 µM | TGI (DU-145 prostate): > 100 µM

— PubChem BioAssay (NCI)
